Measurements reported in ChEMBL document CHEMBL4308876, “Isolation and structure determination of a new lasso peptide specialicin based on genome mining” (Bioorg Med Chem, 2018).
Converted amounts (≈) assume the structure as drawn. Bridge positions count the residues as written; N and C are the ends. Peptide text beside a SMILES is read from it.

Experiments:
Escherichia coli = assay: Antibacterial activity against Escherichia coli after 24 hrs; format: functional
Staphylococcus aureus = assay: Antibacterial activity against Staphylococcus aureus after 24 hrs; format: functional
Micrococcus luteus = assay: Antibacterial activity against Micrococcus luteus after 24 hrs; format: functional
[1] = system: Human immunodeficiency virus 1; assay: Antiviral activity against HIV-1 NL4-3 infected in human PM1/CCR5 cells after 7 days by WST-8 assay; format: functional, organism-based; settings: Human immunodeficiency virus 1, NL4-3, PM1/CCR5, 168 h
Bacillus subtilis = assay: Antibacterial activity against Bacillus subtilis after 24 hrs; format: functional
Pseudomonas aeruginosa = assay: Antibacterial activity against Pseudomonas aeruginosa after 24 hrs; format: functional

SMILES | MIC (Escherichia coli) | MIC (Staphylococcus aureus) | MIC (Micrococcus luteus) | IC50 [1] | MIC (Bacillus subtilis) | MIC (Pseudomonas aeruginosa)
CC(C)C[C@@H]1NC(=O)[C@@H]2CSSC[C@@H]3NC(=O)CNC(=O)[C@H](C)NC(=O)[C@H](Cc4ccccc4)NC(=O)[C@H](CC(=O)N2)NC(=O)[C@H](C(C)C)NC(=O)[C@H](CSSC[C@@H](C(=O)N[C@@H](Cc2ccccc2)C(=O)N[C@@H](Cc2c[nH]c4ccccc24)C(=O)O)NC(=O)[C@H](C(C)C)NC(=O)[C@H](C(C)C)NC(=O)[C@H](C)NC(=O)[C@H](Cc2ccc(O)cc2)NC(=O)CNC3=O)NC(=O)[C@H](CO)NC(=O)CNC(=O)[C@H](C(C)C)NC(=O)CNC1=O (CLGVGSCVDFAGCGYAVVCFW-OH; disulfide 1-13, 7-19; lactam N-9) | > 32 µg/mL | > 32 µg/mL | 8 µg/mL (≈ 3.75 µM) | 7.2 µM | > 32 µg/mL | > 32 µg/mL
CN(C)[C@@H]1C(O)=C(C(N)=O)C(=O)[C@@]2(O)C(O)=C3C(=O)c4c(O)cccc4[C@@](C)(O)[C@H]3C[C@@H]12 [TETRACYCLINE] | 2 µg/mL (≈ 4.5 µM) | 0.125 µg/mL (≈ 0.281 µM) | 0.25 µg/mL (≈ 0.563 µM) | – | 1 µg/mL (≈ 2.25 µM) | 4 µg/mL (≈ 9 µM)
